Assay results from patent US5428042A, “1-(2H-1-oxo-3,4-dihydronaphtyl-6-yl)-acetyl-piperidines as kappa agonists” (Dr Lo Zambeletti S.p.A., priority 1990, dated 1995).
Structures can show the parent of a compound that is named as a salt.

Columns and labels:
kappa brain receptor = biological target: T1, kappa brain receptor (Cavia porcellus, UniProt P41144); assay: Kappa brain receptor binding (binding to kappa sites); settings: guinea pig brain homogenate, tritiated kappa selective compound, 40 min, 25° C.
T1 construct: fresh guinea pig brain homogenates; from tissue; host or cells: guinea pig whole brain without cerebellum, fresh homogenate
Experimental: Radio receptor binding to kappa site is performed on fresh guinea pig brain homogenates prepared according to Kosterlitz (1981).
Whole brain without cerebellum is homogenized in 50 mM Tris-buffer (pH 7.4 at 0° C.) and centrifuged at 49,000×g for 10 min.
The pellet is then resuspended in the same buffer, incubated at 37° C. for 45 min and centrifuged again.
1.9 ml of the final homogenate (1:100 in Tris pH 7.4, 0° C.) is used for the binding assay.
The binding to the kappa sites is performed using a tritiated kappa selective compound. Final homogenate with solutions of the cold ligand and of the labelled ligand is incubated for 40 min at 25° C., filtered through Whatman GF/C glass filter discs and washed. The radioactivity bound to the filters is counted by liquid scintillation spectrophotometry.
The non-specific binding is determined in the presence of 500 nM of the benzomorphan non-selective compound Mr 2266.
The equilibrium dissociation constant […] and the maximum binding capacity (Bmax) are determined from the analysis of saturation curves, while the inhibition constant (Ki) is determined from the analysis of competition experiments (Hill 1910; Scatchard 1949; Cheng and Prusoff 1973; Gillan et al 1980).

[1] = P-phenylquinone-induced abdominal writhing test in mice (analgesia, mouse writhing, graded); assay type: in vivo, mouse (male Charles River, Swiss Strain); settings: sc, 20 min, 20 min pretreatment, p-phenylquinone 2 mg/Kg i.p., 8 min observation
Source text: The pharmacological activity of the compounds of this invention is illustrated by the mouse writhing test, described as follows:
P-phenylquinone-induced abdominal writhing test in mice
The methodology employed is based on that described by Sigmund et al, Proc. Soc. Exptl. Biol. 95, 729/1957, modified by Milne and Twomey, Agents and Actions, 10, 31/1980.
Male Charles River mice (Swiss Strain), 25-36 g body weight, were used. Animals were allowed food and water ad libitum and were randomized into groups of 10 prior to experimentation. Test compounds were dissolved in either distilled water or distilled water plus 0.1M AMS, and administered by the subcutaneous route in a final volume of 10 ml/Kg. Control animals received 10 ml/Kg of the appropriate vehicle alone. Following a pretreatment period of 20 min., mice were injected intraperitoneally with p-phenylquinone, 2 mg/Kg at 37° C. in a final volume of 10 mg/kg. […] During this period the number of abdominal writhing responses per animal were recorded where writhing consists of an intermittent contraction of the abdomen associated with hind leg extension.
The degree of antinociceptive protection afforded by the test compound was determined as the mean number of writhing responses observed in the treated group (T) expressed as a percentage of the mean number of writhing responses in the control group (C) according to the following formula:
[1-(T/C]×100%=% graded protection

T1 sequence (P41144 whole entry): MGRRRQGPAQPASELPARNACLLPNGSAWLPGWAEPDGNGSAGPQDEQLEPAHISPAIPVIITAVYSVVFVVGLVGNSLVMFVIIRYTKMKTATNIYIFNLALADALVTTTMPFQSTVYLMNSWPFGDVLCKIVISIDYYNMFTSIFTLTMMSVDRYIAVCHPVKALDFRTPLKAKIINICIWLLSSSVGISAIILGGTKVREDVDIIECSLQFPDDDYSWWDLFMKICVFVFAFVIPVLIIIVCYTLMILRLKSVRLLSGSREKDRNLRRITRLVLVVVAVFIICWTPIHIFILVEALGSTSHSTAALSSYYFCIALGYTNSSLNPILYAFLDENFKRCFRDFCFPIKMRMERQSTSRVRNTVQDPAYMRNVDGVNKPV

SMILES	Ki (kappa brain receptor) [nM]	ED50 [1] [mg/kg]
CN(C)CC1CC(C)(C)CCN1C(=O)Cc1ccc2c(c1)CCCC2=O (racemic) [Example 5, (±)-1-[1-oxo-3,4-dihydro-(2H)-napht-6-yl]acetyl-2-dimethylaminomethyl-4,4-dimethyl piperidine hydrochloride]	65	0.377
CN(C)CC1CCC(C)(C)CN1C(=O)Cc1ccc2c(c1)CCCC2=O (racemic) [Example 6, (±)-1-[1-oxo-3,4-dihydro-(2H)-napht-6-yl]acetyl-2-dimethylaminomethyl-5,5-dimethyl piperidine hydrochloride]	88.7	0.641
CN(C)C[C@@H]1CCCCN1C(=O)Cc1ccc2c(c1)CCCC2=O [Example 1, (2S)-1-[1-oxo-3,4-dihydro-(2H)-napht-6-yl]acetyl-2-dimethyl-aminomethyl piperidine hydrochloride]		0.154
CCN(C)C[C@@H]1CCCCN1C(=O)Cc1ccc2c(c1)CCCC2=O [Example 2, (2S)-1-[1-oxo-3,4-dihydro-(2H)-napht-6-yl]acetyl-2-(N-methyl-N-ethyl)aminomethyl piperidine hydrochloride]		0.061
CCN(CC)C[C@@H]1CCCCN1C(=O)Cc1ccc2c(c1)CCCC2=O [Example 3, (2S)-1-[1-oxo-3,4-dihydro-(2H)-napht-6-yl]acetyl-2-diethylaminomethyl piperidine hydrochloride]		0.427
CCCN(C)C[C@@H]1CCCCN1C(=O)Cc1ccc2c(c1)CCCC2=O [Example 9, (2S)-1-[1-oxo-3,4-dihydro-(2H)-napht-6-yl]acetyl-2-(N-methyl-N-propyl)aminomethyl piperidine hydrochloride]	10 to 50	0.221
CC(C)N(C)C[C@@H]1CCCCN1C(=O)Cc1ccc2c(c1)CCCC2=O [Example 10, (2S)-1-[1-oxo-3,4-dihydro-(2H)-napht-6-yl]acetyl-2-(N-methyl-N-isopropyl)aminomethyl piperidine hydrochloride emihydrate]	2.87	0.078
C=CCN(C)C[C@@H]1CCCCN1C(=O)Cc1ccc2c(c1)CCCC2=O [Example 11, (2S)-1-[1-oxo-3,4-dihydro-(2H)-napht-6-yl]acetyl-2-(N-allyl-N-methyl)aminomethyl piperidine hydrochloride]	~50	0.13
CN(C[C@@H]1CCCCN1C(=O)Cc1ccc2c(c1)CCCC2=O)C1CC1 [Example 12, (2S)-1-[1-oxo-3,4-dihydro-(2H)-napht-6-yl]acetyl-2-(N-cyclopropyl-N-methyl)aminomethyl piperidine hydrochloride]	50	0.141
CN(C)C[C@@H]1CC(C)(C)CCN1C(=O)Cc1ccc2c(c1)CCCC2=O [Example 15, (-)-1-[1-oxo-3,4-dihydro-(2H)-napht-6-yl]acetyl-2-dimethylaminomethyl-4,4-dimethylpiperidine D(-) tartrate]	22.9	0.115
C#CCN(C)C[C@@H]1CCCCN1C(=O)Cc1ccc2c(c1)CCCC2=O [Example 16, (2S)-1-[1-oxo-3,4-dihydro-(2H)-napht-6-yl]acetyl-2-(N-methyl-N-propargyl)aminomethyl piperidine hydrochloride]		0.056
CN(C[C@@H]1CCCCN1C(=O)Cc1ccc2c(c1)CCCC2=O)C1CCC1 [Example 17, (2S)-1-[1-oxo-3,4-dihydro-(2H)-napht-6-yl]acetyl-2-(N-cyclobutyl-N-methyl)aminomethyl piperidine hydrochloride]		0.127
CN(C[C@@H]1CCCCN1C(=O)Cc1ccc2c(c1)CCCC2=O)C1CCCC1 [Example 18, (2S)-1-[1-oxo-3,4-dihydro-(2H)-napht-6-yl]acetyl-2-(N-cyclopentyl-N-methyl)aminomethyl piperidine hydrochloride .1/4 H2 O]		0.21
